Assay results from ChEMBL document CHEMBL1201862, “PubChem BioAssay data set” (2004).
Active and inactive are the calls of the source.

Experiments:
Cysteine protease ATG4B = molecular target: T1, Cysteine protease ATG4B (Homo sapiens, UniProt Q9Y4P1); type: functional;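 further: Fluorescence-based dose-response confirmation assay measuring inhibition of ATG4B activity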
T1 sequence (Q9Y4P1 whole entry): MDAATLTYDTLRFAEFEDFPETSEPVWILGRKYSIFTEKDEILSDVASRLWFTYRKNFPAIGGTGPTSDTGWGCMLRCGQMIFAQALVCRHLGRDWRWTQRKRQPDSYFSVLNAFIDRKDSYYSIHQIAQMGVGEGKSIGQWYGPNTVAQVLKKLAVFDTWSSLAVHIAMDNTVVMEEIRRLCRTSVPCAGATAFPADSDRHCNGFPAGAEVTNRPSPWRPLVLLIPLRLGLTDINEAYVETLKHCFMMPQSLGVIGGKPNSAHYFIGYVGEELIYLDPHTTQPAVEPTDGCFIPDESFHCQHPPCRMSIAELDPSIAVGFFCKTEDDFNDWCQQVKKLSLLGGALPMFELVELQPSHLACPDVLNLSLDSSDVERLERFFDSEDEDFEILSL

Phospholipase A2 = Phospholipase A2 (Homo sapiens, UniProt P04054); type: functional;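 further: confirmatory dose-response counterscreen on phospholipase A2, testing hits that came from an ultra-high-throughput screen for ATG4B inhibitors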
HEK293 [1] = assay: cells; conditions: Homo sapiens
HEK293 [2] = assay: cells; conditions: Homo sapiens; remark: listed apart in the source
[3] = test system: Streptococcus sp. 'group A'; assay: growth inhibition of control SK(-) GAS strain, dose response, counter-screen for streptokinase expression inhibitor project, luminescence, kanamycin, BacTiterGlo, confirmation (AID 1900); type: functional, organism-based
Streptokinase A = molecular target: T2, Streptokinase A (Streptococcus pyogenes serotype M1, UniProt P10520); assay: S. pyogenes streptokinase expression inhibitors, potency, dose response, plasminogen activation absorbance, OD405 (AID 1914); type: functional, Streptococcus pyogenes M1 GAS;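 further: secreted streptokinase activity via plasminogen activation per viability signal from cell pellet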
T2 sequence (P10520 whole entry): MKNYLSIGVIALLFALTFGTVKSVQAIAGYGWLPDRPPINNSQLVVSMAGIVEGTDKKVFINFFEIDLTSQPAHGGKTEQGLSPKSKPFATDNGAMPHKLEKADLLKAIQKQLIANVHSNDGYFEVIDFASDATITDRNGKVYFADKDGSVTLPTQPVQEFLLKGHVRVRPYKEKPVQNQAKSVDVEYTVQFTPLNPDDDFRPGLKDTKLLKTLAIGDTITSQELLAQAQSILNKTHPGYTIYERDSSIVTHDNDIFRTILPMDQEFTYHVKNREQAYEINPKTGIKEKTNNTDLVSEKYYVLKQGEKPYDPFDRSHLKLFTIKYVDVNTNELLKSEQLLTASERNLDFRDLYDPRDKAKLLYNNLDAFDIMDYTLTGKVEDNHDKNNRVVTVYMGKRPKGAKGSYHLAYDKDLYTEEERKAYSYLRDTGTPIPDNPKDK

Streptococcus = assay: Group A Streptococcus viability loss, dose response, counter-screen for streptokinase expression inhibitor project, luminescence, BacTiterGlo (AID 1915); type: functional, organism-based;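 further: potency for reduction of bacterial viability or growth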
[4] = molecular target: Photoreceptor-specific nuclear receptor (Homo sapiens, UniProt Q9Y5X4); type: functional, cell-based;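 further: CHO-S cells with Gal4-NCOR and VP16-NR2E3 two-hybrid luciferase reporter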
[5] = molecular target: T3, Long-chain-fatty-acid--AMP ligase FadD28 (Mycobacterium tuberculosis, UniProt P9WQ59); assay: Fluorescence polarization aasay to screen for inhibitors that compete for the binding of FadD28 to a bisubstrate Measured in Biochemical System Using Plate Reader - 2147-01_Inhibitor_Dose_CherryPick_Activity.; type: functional, Mycobacterium tuberculosis H37Rv
T3 sequence (P9WQ59 whole entry): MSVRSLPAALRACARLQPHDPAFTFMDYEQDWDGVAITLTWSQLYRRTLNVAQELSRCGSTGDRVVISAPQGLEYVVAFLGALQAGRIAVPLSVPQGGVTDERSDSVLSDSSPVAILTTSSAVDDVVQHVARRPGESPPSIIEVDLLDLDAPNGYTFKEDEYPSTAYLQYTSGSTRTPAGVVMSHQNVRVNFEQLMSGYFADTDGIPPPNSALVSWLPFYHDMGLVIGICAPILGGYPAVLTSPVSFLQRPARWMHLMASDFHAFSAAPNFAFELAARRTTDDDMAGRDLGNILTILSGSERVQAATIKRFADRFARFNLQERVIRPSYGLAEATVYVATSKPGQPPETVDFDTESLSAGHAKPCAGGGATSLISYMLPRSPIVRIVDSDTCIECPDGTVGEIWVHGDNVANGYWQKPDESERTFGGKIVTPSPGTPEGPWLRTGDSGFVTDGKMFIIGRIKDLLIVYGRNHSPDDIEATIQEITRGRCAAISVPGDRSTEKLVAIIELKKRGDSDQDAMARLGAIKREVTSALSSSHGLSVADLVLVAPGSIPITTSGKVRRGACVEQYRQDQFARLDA

Escherichia coli = assay: microbe, parasite or virus in culture
[6] = molecular target: T4, Dual specificity protein phosphatase 3 (Homo sapiens, UniProt P51452); assay: SAR VHR1 absorbance Assay for In Vitro dose response studies. [Related pubchem assays (depositor defined):AID1654, AID1661, AID1878, AID1992, AID2004]
[7] = molecular target: T4, Dual specificity protein phosphatase 3; assay: SAR VHR1 Fluorescent Assay for In Vitro dose response studies. [Related pubchem assays (depositor defined):AID1654, AID1661, AID1878, AID1992, AID2004, AID2070, AID2085]; type: functional
[8] = molecular target: T4, Dual specificity protein phosphatase 3; assay: MOA VHR1 Fluorescent secondary assay for identification of redox-state modulating compounds. [Related pubchem assays (depositor defined):AID1654, AID1661, AID1878, AID1957]
[9] = molecular target: T5, Tyrosine-protein phosphatase non-receptor type 7 (Homo sapiens, UniProt P35236); assay: redox-dependent HePTP inhibition, mechanism study, biochemical, fluorescence (AID 2068); type: functional
T5 sequence (P35236 whole entry): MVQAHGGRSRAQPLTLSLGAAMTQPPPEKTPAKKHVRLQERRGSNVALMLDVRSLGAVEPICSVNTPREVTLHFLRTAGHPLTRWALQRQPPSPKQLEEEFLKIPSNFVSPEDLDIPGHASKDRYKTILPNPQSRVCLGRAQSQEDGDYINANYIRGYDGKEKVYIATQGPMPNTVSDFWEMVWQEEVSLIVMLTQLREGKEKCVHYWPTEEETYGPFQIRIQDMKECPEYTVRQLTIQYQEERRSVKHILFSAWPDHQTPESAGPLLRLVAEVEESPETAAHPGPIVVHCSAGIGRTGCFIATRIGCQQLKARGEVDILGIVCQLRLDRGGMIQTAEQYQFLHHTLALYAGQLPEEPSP

[10] = molecular target: FAD-linked sulfhydryl oxidase ALR (Homo sapiens, UniProt P55789); assay: inhibitors of human ALR sulfhydryl oxidase, dose response, biochemical, H2O2 detection, luminescence, cherry-pick (AID 493248)
[11] = molecular target: Dual specificity protein phosphatase 6 (Rattus norvegicus, UniProt Q64346); type: functional;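 further: confirmatory in vitro dose-response testing of MKP-3 inhibition; recombinant His-tagged MKP-3 made in E. coli BL21 with OMFP substrate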
[12] = molecular target: T6, Polyadenylate-binding protein 1 (Homo sapiens, UniProt P11940); assay: PABP1 MLLE–PAM2 interaction inhibitors, dose response, miRNA deadenylation inhibitor project, biochemical, fluorescence polarization, Cy5-PAM2 peptide, secondary (AID 602260); type: functional; conditions: read-out: IC50_Mean
[13] = molecular target: T6, Polyadenylate-binding protein 1; assay: PABP1 MLLE–PAM2 binding inhibitor potency, dose response, biochemical, fluorescence polarization, FITC-PAM2 peptide (AID 602259); type: functional; conditions: read-out: IC50_Mean

T4 sequence (P51452 whole entry): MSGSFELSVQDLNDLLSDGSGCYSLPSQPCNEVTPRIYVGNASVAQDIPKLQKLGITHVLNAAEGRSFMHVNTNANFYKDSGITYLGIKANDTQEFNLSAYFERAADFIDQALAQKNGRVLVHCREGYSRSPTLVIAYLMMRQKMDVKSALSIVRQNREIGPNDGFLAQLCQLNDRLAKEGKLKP
T6 sequence (P11940 whole entry): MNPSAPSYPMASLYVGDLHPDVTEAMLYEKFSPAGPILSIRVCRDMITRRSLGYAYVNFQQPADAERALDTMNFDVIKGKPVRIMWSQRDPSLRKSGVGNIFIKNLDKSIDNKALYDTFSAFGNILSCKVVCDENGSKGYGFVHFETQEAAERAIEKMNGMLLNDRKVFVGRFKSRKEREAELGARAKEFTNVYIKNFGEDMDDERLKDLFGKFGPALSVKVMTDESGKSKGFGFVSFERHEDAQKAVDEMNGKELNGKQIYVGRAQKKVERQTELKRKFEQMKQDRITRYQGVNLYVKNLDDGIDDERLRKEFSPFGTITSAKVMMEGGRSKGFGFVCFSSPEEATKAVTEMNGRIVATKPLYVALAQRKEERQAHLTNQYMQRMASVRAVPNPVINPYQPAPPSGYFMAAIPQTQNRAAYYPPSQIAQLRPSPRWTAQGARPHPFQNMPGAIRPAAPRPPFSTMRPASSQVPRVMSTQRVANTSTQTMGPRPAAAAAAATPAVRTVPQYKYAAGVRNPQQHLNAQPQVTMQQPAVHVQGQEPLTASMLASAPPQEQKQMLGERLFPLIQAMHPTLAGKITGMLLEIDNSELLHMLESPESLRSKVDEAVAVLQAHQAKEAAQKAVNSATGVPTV
Dual specificity protein phosphatase 6, sequence (Q64346 whole entry): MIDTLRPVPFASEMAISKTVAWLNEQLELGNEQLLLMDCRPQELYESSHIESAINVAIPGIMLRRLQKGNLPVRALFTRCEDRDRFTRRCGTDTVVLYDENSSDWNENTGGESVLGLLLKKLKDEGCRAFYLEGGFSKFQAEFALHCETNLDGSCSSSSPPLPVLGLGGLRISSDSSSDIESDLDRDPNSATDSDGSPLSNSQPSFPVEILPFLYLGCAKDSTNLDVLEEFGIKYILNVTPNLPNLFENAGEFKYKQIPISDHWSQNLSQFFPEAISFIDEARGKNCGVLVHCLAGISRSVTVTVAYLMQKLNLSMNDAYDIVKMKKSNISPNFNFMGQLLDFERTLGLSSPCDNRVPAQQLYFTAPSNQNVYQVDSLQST
Photoreceptor-specific nuclear receptor, sequence (Q9Y5X4 whole entry, the tested form may be a part): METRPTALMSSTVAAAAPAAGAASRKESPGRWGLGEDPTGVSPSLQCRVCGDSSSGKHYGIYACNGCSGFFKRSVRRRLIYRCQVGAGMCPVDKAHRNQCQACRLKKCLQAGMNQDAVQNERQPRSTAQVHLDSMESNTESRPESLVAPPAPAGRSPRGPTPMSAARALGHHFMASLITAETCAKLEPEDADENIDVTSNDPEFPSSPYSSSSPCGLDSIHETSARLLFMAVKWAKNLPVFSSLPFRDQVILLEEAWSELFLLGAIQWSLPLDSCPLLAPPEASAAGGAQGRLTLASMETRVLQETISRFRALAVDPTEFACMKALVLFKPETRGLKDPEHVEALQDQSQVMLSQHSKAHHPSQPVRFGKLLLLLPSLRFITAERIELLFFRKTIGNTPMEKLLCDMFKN
FAD-linked sulfhydryl oxidase ALR, sequence (P55789 whole entry): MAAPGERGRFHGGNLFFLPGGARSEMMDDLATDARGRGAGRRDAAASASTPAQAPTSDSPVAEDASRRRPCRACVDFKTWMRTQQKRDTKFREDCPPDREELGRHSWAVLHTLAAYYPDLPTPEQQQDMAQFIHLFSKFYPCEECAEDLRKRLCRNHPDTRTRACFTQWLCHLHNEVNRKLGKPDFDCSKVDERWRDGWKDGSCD
Phospholipase A2, sequence (P04054 whole entry): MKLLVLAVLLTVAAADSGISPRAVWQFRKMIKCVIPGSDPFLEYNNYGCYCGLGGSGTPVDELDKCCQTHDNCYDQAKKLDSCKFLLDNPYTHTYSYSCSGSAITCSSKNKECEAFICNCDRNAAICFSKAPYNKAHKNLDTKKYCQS

Which IC50 (Cysteine protease ATG4B) does the source give for CCNc1nc(CSc2ccccc2)nc2sc(C)c(C)c12 here?
Its IC50 is 10.3 µM (active).

What about the IC50 (Phospholipase A2) of the same compound?
Its IC50 is 8.4 µM (active).

What about the EC50 (HEK293 [1]) of the same compound?
The EC50 was > 59.7 µM (inactive).

What about the EC50 (HEK293 [2]) of the same compound?
The EC50 was > 59.7 µM (inactive).

Which results are given for CCCCCCCCCCCCN1[C@@H](CC(=O)O)c2cc(C(F)(F)F)ccc2S1(=O)=O?
EC50 [3]: 2.22 µM (active); EC50 (Streptokinase A): 2.28 µM (active); EC50 (Streptococcus): 10.2 µM (active); IC50 [4]: 5.7 µM (active); AC50 [5]: 20.3 µM (active); AC50 (Escherichia coli): 8.9 µM (active)

How did the IC50 [6] turn out when COc1cc(C(=S)N2CCCC2)ccc1O was run?
The IC50 was > 100 µM (inactive).

What about the IC50 [7] of the same compound?
Its IC50 is 86.3 µM (active).

What about the IC50 [8] of the same compound?
The IC50 was 72.4 µM (active).

What about the IC50 [9] of the same compound?
The IC50 was > 100 µM (inactive).

What about the AC50 [10] of the same compound?
Its AC50 is 15.1 µM (active).

What about the IC50 [11] of the same compound?
Its IC50 is > 100 µM (inactive).

And the IC50 [12]?
The IC50 was > 66 µM (inactive).

What about the IC50 [13] of the same compound?
Its IC50 is > 66 µM (inactive).
